In patent publication US20240317774A1, “Pharmaceutical Compound” (GLAXOSMITHKLINE INTELLECTUAL PROPERTY DEVELOPMENT LIMITED, priority 2021, published 2024):
Read-outs that look alike come from different tables or passages of the source.

Legend:
P. falciparum Tm90C2B = format: cell-based; settings: strain Tm90C2B
P. falciparum FCR3 = test: Panel of P. falciparum strains: FCR3; format: cell-based; settings: strain FCR3
P. falciparum 3D7A = test: Panel of P. falciparum strains: 3D7A; format: cell-based; settings: Plasmodium falciparum, read-out: IC50 (mean μM ± SD) 3D7A
P. falciparum Dd2 = test: Panel of P. falciparum strains: Dd2; format: cell-based; settings: strain Dd2
P. falciparum Tm90C2A = test: Panel of P. falciparum strains: Tm90C2A; format: cell-based; settings: strain Tm90C2A
[1] = system: P. falciparum infected erythrocytes; test: Blood stages activity, [3H]hypoxanthine incorporation method; format: cell-based; settings: Plasmodium falciparum, Erythrocyte; whole cell activity; read-out: WC IC50
Experimental: The sensitivity of P. falciparum infected erythrocytes to the compound was determined using the [3H]hypoxanthine incorporation method with an inoculum of 0.5% parasitemia (ring stage) and 2% hematocrit. The parasites were grown in RPMI 1640, 25 mM HEPES and supplemented with 5% Albumax. Plates are incubated at 37° C., 5% CO2, 5% O2, 90% N2. After 24 h of incubation, [3H]hypoxanthine is added and plates are incubated for another 24 h. After that period, plates are harvested on a glass fiber filter using a TOMTEC Cell harvester 96. Filters are dried and melt on scintillator sheets and the bound radioactivity is quantified by use of a Wallac Microbeta Trilux (Model 1450 LS-Perkin Elmer). IC50s are determined using Grafit 7 program (Grafit program; Erithacus Software, Horley, Surrey, United Kingdom).

[2] = target: T1, cytochrome bc1 of mitochondria isolated from human cells (HEK293) (Homo sapiens, UniProt P00156); test: Enzymatic bc1 inhibition, cytochrome c reductase activity, human mitochondria; format: biochemical; settings: for IC50: activity in the human target, read-out: Hbc1 IC50; for Tox window selectivity index: human bc1 vs P. falciparum bc1
T1 construct: endogenous in cells; host or cells: HEK293 (isolated mitochondria)
Experimental: (§1) For cytochrome bc1 experiments, mitochondria were isolated as follows: parasitized erythrocytes were harvested by centrifugation and lysed with 0.05% (w/v) saponin in RPMI. Then parasites were washed three times with H-medium (0.07 M sucrose, 0.21 M mannitol, 1 mM EGTA, 5 mM MgCl2, 5 mM KH2PO4, and 4 mM HEPES, pH 7.4) and resuspended in the same medium in the presence of 1 mM PMSF and protease inhibitor cocktail (Roche Complete). Parasites were disrupted by N2 cavitation (4639 Cell disruption Bomb, Parr Instrument, Moline, IL, USA) at 1600 psi for 25 min at 4° C. Unbroken cells and cell debris were removed by centrifugation at 1,200×g for 10 min at 4° C. The mitochondrial fraction was pelleted at 10,000×g for 20 min at 4° C. The mitochondrial pellet was gently resuspended in 0.8 M sucrose, 1 mM EDTA, 10 mM Tris-HCl PH 7.4, and 0.1% BSA prior to separation on a 1-2 M sucrose gradient. The sample was centrifuged on a gradient at 80,000×g for 2 hr at 4° C. The mitochondria were then recovered and washed with 1 mM EDTA, 10 mM Tris-HCL pH 7.4 to remove sucrose, and resuspended in H-medium with protease inhibitor cocktail and 1 mM PMSF. Samples were stored at −80° C. until use. In the case of human mitochondria, HEK293 human cell line was used as starting material. Cells were pelleted at 400×g 10 min and disrupted by N2 cavitation. Mitochondria then were isolated using the method described above. Cytochrome c reductase activity was assayed by a modification of the method of Fry and Pudney, Biochem. Pharmacol., 43 (1992), pp. 1545-1553. Mitochondria (40 μg/ml) were diluted in reaction buffer (250 mM sucrose, 50 mM KH2PO4, 0.2 mM EDTA, 1 mM NaN3, and 2.5 mM KCN) containing 50 μM cytochrome c. Reactions were started by addition of 25 μM decylubiquinol and monitored by reduction of cytochrome c at 550 nm. To assure the linearity of the enzymatic reaction only data from the first 60 s were collected. Decylubiquinol substrate was prepared by reducing decylubiquinone (Sigma-Aldrich, St. Louis, MO, USA) in ethanol with sodium borohydride. Decylubiquinol was aliquoted and stored in acidified ethanol at −80° C. Inhibition of bc1 activity on mitochondria isolated from human parasites (P. falciparum 3D7A), rodent parasites (P. berghei ANKA) and human cells (HEK293).

[3] = target: T2, cytochrome bc1 of mitochondria isolated from human parasites (P. falciparum 3D7A) (Plasmodium falciparum, UniProt Q02768); test: Enzymatic bc1 inhibition, cytochrome c reductase activity, P. falciparum mitochondria; format: biochemical
T2 construct: endogenous in cells; host or cells: P. falciparum 3D7A parasites from parasitized erythrocytes (isolated mitochondria)
T2 sequence (Q02768 whole entry): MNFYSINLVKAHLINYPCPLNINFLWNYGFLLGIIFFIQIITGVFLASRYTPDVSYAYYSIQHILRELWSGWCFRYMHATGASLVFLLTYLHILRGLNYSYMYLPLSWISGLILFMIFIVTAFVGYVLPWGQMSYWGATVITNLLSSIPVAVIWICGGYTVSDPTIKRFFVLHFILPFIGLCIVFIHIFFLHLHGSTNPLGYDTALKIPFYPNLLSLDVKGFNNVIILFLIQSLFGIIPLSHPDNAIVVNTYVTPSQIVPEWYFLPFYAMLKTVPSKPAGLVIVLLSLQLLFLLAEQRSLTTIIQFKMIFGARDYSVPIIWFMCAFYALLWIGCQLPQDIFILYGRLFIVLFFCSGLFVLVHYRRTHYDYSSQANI
Experimental: as §1

[4] = activity in the P. falciparum target, read-out: p.fbc1 IC50

In the case of C[C@H]1[C@H](OC(=O)CCC(=O)O)O[C@@H]2O[C@@]3(C)CC[C@H]4[C@H](C)CC[C@@H]1[C@@]24OO3 [Artesunate], the “Pf IC50 Ratio vs Pf IC50 3D7, Tm90C2B” value (P. falciparum Tm90C2B) is reported as 1, the “Pf IC50 Ratio vs Pf IC50 3D7, FCR3” value (P. falciparum FCR3) is reported as 1 and the IC50 (P. falciparum 3D7A) is reported as 0.014 ± 0.0003 µM. For the same molecule, the “Pf IC50 Ratio vs Pf IC50 3D7, Dd2” value (P. falciparum Dd2) was 1 and the “Pf IC50 Ratio vs Pf IC50 3D7, Tm90C2A” value (P. falciparum Tm90C2A) was 1.

O=C1C(O)=C([C@H]2CC[C@H](c3ccc(Cl)cc3)CC2)C(=O)c2ccccc21 [Atovaquone] was tested, and the “Pf IC50 Ratio vs Pf IC50 3D7, Tm90C2B” value (P. falciparum Tm90C2B) was over 250, the “Pf IC50 Ratio vs Pf IC50 3D7, FCR3” value (P. falciparum FCR3) was over 100 and the IC50 (P. falciparum 3D7A; strain 3D7A) was 0.001 ± 0.001 µM. For the same molecule, the “Pf IC50 Ratio vs Pf IC50 3D7, Dd2” value (P. falciparum Dd2) was 2 and the “Pf IC50 Ratio vs Pf IC50 3D7, Tm90C2A” value (P. falciparum Tm90C2A) was 1.

For CCN(CC)CCCC(C)Nc1ccnc2cc(Cl)ccc12 (centres unmarked) [Chloroquine], the “Pf IC50 Ratio vs Pf IC50 3D7, Tm90C2B” value (P. falciparum Tm90C2B) was over 14, the “Pf IC50 Ratio vs Pf IC50 3D7, FCR3” value (P. falciparum FCR3) was over 7 and the IC50 (P. falciparum 3D7A) was 0.029 ± 0.006 µM. For the same molecule, the “Pf IC50 Ratio vs Pf IC50 3D7, Dd2” value (P. falciparum Dd2) was over 7 and the “Pf IC50 Ratio vs Pf IC50 3D7, Tm90C2A” value (P. falciparum Tm90C2A) was over 7.

C[C@H]1[C@@H](O)O[C@@H]2O[C@@]3(C)CC[C@H]4[C@H](C)CC[C@@H]1[C@@]24OO3 [Dihydroartemisinine] was tested, and the “Pf IC50 Ratio vs Pf IC50 3D7, Tm90C2B” value (P. falciparum Tm90C2B) was 1, the “Pf IC50 Ratio vs Pf IC50 3D7, FCR3” value (P. falciparum FCR3) was 1 and the IC50 (P. falciparum 3D7A; strain 3D7A) was 0.004 ± 0.0001 µM. The “Pf IC50 Ratio vs Pf IC50 3D7, Dd2” value (P. falciparum Dd2) was 1 and the “Pf IC50 Ratio vs Pf IC50 3D7, Tm90C2A” value (P. falciparum Tm90C2A) was 1.

Cc1[nH]c2sc3cc(-c4ccc(C(F)(F)F)cc4F)ccc3c2c(=O)c1Cl [Example 1, 3-chloro-7-(2-fluoro-4-(trifluoromethyl)phenyl)-2-methylbenzo[4,5] thieno[2,3-b]pyridin-4(1H)-one] was tested, and the IC50 [1] was 0.00146 µM, the “Pf IC50 Ratio vs Pf IC50 3D7, Tm90C2B” value (P. falciparum Tm90C2B) was 7 and the “Pf IC50 Ratio vs Pf IC50 3D7, FCR3” value (P. falciparum FCR3) was 1. For the same molecule, the IC50 (P. falciparum 3D7A; strain 3D7A) was 0.012 ± 0.002 µM, the IC50 [2] was 3.3 µM and the “Tox window selectivity index” value [2] was 300-600. The IC50 [3] was 0.0046 µM, the “Pf IC50 Ratio vs Pf IC50 3D7, Dd2” value (P. falciparum Dd2) was 1 and the “Pf IC50 Ratio vs Pf IC50 3D7, Tm90C2A” value (P. falciparum Tm90C2A) was 1.

In the case of Cc1[nH]c2sc3cc(-c4cc(C(F)(F)F)ccc4F)ccc3c2c(=O)c1Cl [Example 3, 3-chloro-7-(2-fluoro-5-(trifluoromethyl)phenyl)-2-methylbenzo[4,5]thieno[2,3-b]pyridin-4(1H)-one], the IC50 [1] is reported as 0.0316 µM, the IC50 [2] is reported as 1.52 µM and the “Tox window selectivity index” value [2] is reported as 500. For the same molecule, the IC50 [3, 4] was 0.0018 µM.

With Cc1[nH]c2sc3cc(-c4ccccc4OC(F)(F)F)ccc3c2c(=O)c1Cl [Example 4, 3-chloro-2-methyl-7-(2-(trifluoromethoxy)phenyl)benzo[4,5]thieno[2,3-b]pyridin-4(1H)-one] the IC50 [1] was 0.000732 µM, the IC50 [2] was 1.56 µM and the “Tox window selectivity index” value [2] was 1625. It also gave an IC50 [3, 4] of 0.00096 µM.

For Cc1[nH]c2sc3cc(-c4ccc(C(F)(F)F)cc4C(F)(F)F)ccc3c2c(=O)c1Cl [Example 5, 7-(2,4-bis(trifluoromethyl)phenyl)-3-chloro-2-methylbenzo[4,5]thieno[2,3-b]pyridin-4(1H)-one], the IC50 [1] was 0.000433 µM, the IC50 [2] was 2.42 µM and the “Tox window selectivity index” value [2] was 2200. The IC50 [3] was 0.0011 µM.

In the case of Cc1[nH]c2sc3cc(-c4ccc(CO)cc4)ccc3c2c(=O)c1Cl [Example 6, 3-chloro-7-(4-(hydroxymethyl)phenyl)-2-methylbenzo[4,5]thieno[2,3-b]pyridin-4(1H)-one], the IC50 [1] is reported as 0.000946 µM and the IC50 [2] is reported as 5.42 µM.

For Cc1[nH]c2sc3cc(-c4ccc(CN(C)C5CCN(Cc6ccc(OC(F)(F)F)cc6)CC5)cc4)ccc3c2c(=O)c1Cl [Example 7, 3-chloro-2-methyl-7-(4-((methyl(1-(4-(trifluoromethoxy)benzyl)piperidin-4-yl)amino)methyl)phenyl)benzo[4,5]thieno[2,3-b]pyridin-4(1H)-one 2,2,2-trifluoroacetate], the IC50 [1] was 0.121 µM and the IC50 [2] was over 10 µM.

In the case of CCCCN(CCCC)CC(O)c1cc(Cl)cc2c1-c1ccc(Cl)cc1/C2=C/c1ccc(Cl)cc1 (centres unmarked) [Lumefantrine], the “Pf IC50 Ratio vs Pf IC50 3D7, Tm90C2B” value (P. falciparum Tm90C2B) is reported as 1, the IC50 (P. falciparum 3D7A) is reported as 0.011 ± 0.004 µM and the “Pf IC50 Ratio vs Pf IC50 3D7, Dd2” value (P. falciparum Dd2) is reported as 1. The “Pf IC50 Ratio vs Pf IC50 3D7, Tm90C2A” value (P. falciparum Tm90C2A) was 0.1.

OC(c1cc(C(F)(F)F)nc2c(C(F)(F)F)cccc12)C1CCCCN1 (centres unmarked) [Mefloquine] was tested, and the “Pf IC50 Ratio vs Pf IC50 3D7, Tm90C2B” value (P. falciparum Tm90C2B) was 1, the “Pf IC50 Ratio vs Pf IC50 3D7, FCR3” value (P. falciparum FCR3) was 1 and the IC50 (P. falciparum 3D7A; strain 3D7A) was 0.037 ± 0.001 µM. For the same molecule, the “Pf IC50 Ratio vs Pf IC50 3D7, Dd2” value (P. falciparum Dd2) was 1 and the “Pf IC50 Ratio vs Pf IC50 3D7, Tm90C2A” value (P. falciparum Tm90C2A) was 0.3.

In the case of CCc1nc(N)nc(N)c1-c1ccc(Cl)cc1 [Pyrimethamine], the “Pf IC50 Ratio vs Pf IC50 3D7, Tm90C2B” value (P. falciparum Tm90C2B) is reported as over 88, the “Pf IC50 Ratio vs Pf IC50 3D7, FCR3” value (P. falciparum FCR3) is reported as 3 and the IC50 (P. falciparum 3D7A; strain 3D7A) is reported as 0.032 ± 0.001 µM. For the same molecule, the “Pf IC50 Ratio vs Pf IC50 3D7, Dd2” value (P. falciparum Dd2) was over 312 and the “Pf IC50 Ratio vs Pf IC50 3D7, Tm90C2A” value (P. falciparum Tm90C2A) was over 312.
